Reference: patent publication US10683553B2, “Method for determining sensitivity to simultaneous inhibitor against PARP and Tankyrase” (THE ASAN FOUNDATION, priority 2015, dated 2020)

What was measured:
Assay type in all cases: cell-based
[1] = system: HCT8 human colon cancer cell line; test: Trypan blue apoptosis with overexpressed mutant LIG4 (G833A or T1704C); conditions: HCT8 overexpressing LIG4 mutant G833A or T1704C vs control group (empty); 25 μM and 50 μM, 48 hours
Excerpt: In order to analyze the degree of apoptosis of Compound A, which is a novel PARP/Tankyrase simultaneous inhibitor, when the p53 genotype is a normal type and an LIG4 genotype is a mutant type, the present inventors treated a novel PARP/Tankyrase simultaneous inhibitor, Compound A, and the competitive drug PARP inhibitor, olaparib, while overexpressing an LIG4 mutant type in the HCT8 human colon cancer cell line in which the p53 gene is a normal type and an LIG4 genotype is a normal type. Then, the number of cells was measured by trypan blue staining assay to confirm the degree of apoptosis. […] After 48 hours of culturing, the number of cells was measured by trypan blue staining and the degree of apoptosis was confirmed.
The present inventors conducted an experiment in the same manner as Example 9 to analyze the degree of apoptosis and DNA damage of Compound A, which is a novel PARP/Tankyrase simultaneous inhibitor, when the p53 genotype is a mutant type and an LIG4 genotype is a mutant type. The number of cells was measured by trypan blue staining method and the degree of apoptosis was confirmed. […] It was washed with TBS-T buffer three times for 15 minutes to induce luminescence of PDVF membrane using ECL buffer solution to develop protein expression on each anti-body using an X-ray film.

[2] = system: HCT8 human colon cancer cell line; test: Western blot of r-H2AX and truncated caspase 3 with overexpressed mutant LIG4; conditions: HCT8 overexpressing LIG4 mutant G833A or T1704C
Experimental: The present inventors conducted an experiment in the same manner as Example 9 to analyze the degree of apoptosis and DNA damage of Compound A, which is a novel PARP/Tankyrase simultaneous inhibitor, when the p53 genotype is a mutant type and an LIG4 genotype is a mutant type. The number of cells was measured by trypan blue staining method and the degree of apoptosis was confirmed. The cells were obtained using a centrifuge. Each cell thus obtained was dissolved using an RIPA buffer, and the proteins were extracted using a high-speed centrifuge. 30 μg protein per cell was electrophoresed by western blot method to separate proteins and transferred to PDVF membrane. The r-H2AX, truncated caspase 3, and b-actin antibody were diluted with each 1:2000 ratio in 5% skim milk. Then, the cells were reacted at 4° C. for 12 hours and then washed three times for 15 minutes with TBS-T buffer. The secondary antibody was diluted with each 1:2000 ratio in 5% skim milk and reacted at room temperature for 2 hours. It was washed with TBS-T buffer three times for 15 minutes to induce luminescence of PDVF membrane using ECL buffer solution to develop protein expression on each anti-body using an X-ray film.

[3] = system: SW480 colon cancer cell line; test: MTS cell viability / IC50; conditions: Homo sapiens
Experimental: The present inventors conducted an in vitro cell base assay to analyze the anticancer activity of Compound A, which is a novel PARP/Tankyrase simultaneous inhibitor, in 18 human colon cancer cell lines (Korean Cell Line Bank and ATCC purchased), and the cell viability and IC50 of the cell lines for Compound A, the novel PARP/Tankyrase simultaneous inhibitor, were measured.
As the experimental conditions and methods, a total of 18 human colon cancer cell lines were cultured in RPMI1640 (Roswell Park Memorial Institute 1640; 10% FBS, 1% penicillin/streptomycin), and each cell line was cultured in 96 well plate for 2×10^3 per well at 37° C. for 24 hours and the novel PARP/Tankyrase simultaneous inhibitor, Compound A, was diluted by a multiple of 2 at a maximum of 100 μM and a minimum of 0.390625 μM (100 μM, 50 μM, 25 μM, 12.5 μM, 6.25 μM, 3.125 μM, 1.5625 μM, 0.78125 μM and 0.390625 μM). After the treatment, it was cultured at 37° C. for 72 hours. As for the drug treatment group and non-treatment group, the cell viability of each cell line was measured by MTS analysis (Promega, CellTiter 96 AQeous One Solution) and the IC50 of each cell line was measured using the PRISM program.
The present inventors analyzed the correlation of 18 human colon cancer cell lines, an anti-cancer effect of Compound A which is a novel PARP/Tankyrase simultaneous inhibitor and the genotype of the p53 gene through an in vitro cell base assay in the same experimental method as Example 1 in 18 human colon cancer cell lines.

[4] = system: HCT116 human colon cancer cell line; test: DNA damage by r-H2AX immunocytochemistry; conditions: HCT116 (p53 normal type); 50 μM, 48 hours
Excerpt: In order to analyze the degree of DNA damage of Compound A, which is a novel PARP/Tankyrase simultaneous inhibitor when the p53 gene is a normal type, the present inventors treated a novel PARP/Tankyrase simultaneous inhibitor, Compound A, and the competitive drug PARP inhibitor, olaparib, in the HCT116 human colon cancer cell line in which the p53 gene is a normal type, and then the DNA damage was confirmed by immunochemical method as the expression level of r-H2AX. The conditions and methods of the experiment were as follows: HCT116 human colon cancer cell line in which the p53 gene is a normal type was cultured in RPMI1640 (10% FBS, 1% penicillin/streptomycin) and cultured in a 60 mm plate at 1×10^5 per well for 24 hours at 37° C. Compound A, which is a novel PARP/Tankyrase simultaneous inhibitor, and olaparib, which is a competitive drug PARP inhibitor, were treated with 50 μM each and were cultured for 48 hours. […] The r-H2AX antibody was diluted at a ratio of 1:100 in 1% BSA, reacted overnight at 4° C., washed three times for 10 minutes with TBS-T buffer, and the secondary antibody (alexa Fluor®488 fitc) was diluted at a ratio of 1:100 in 1% BSA, reacted at room temperature for 2 hours, and then washed with TBS-T A buffer three times for 10 minutes, and stained with DAPI (4′,6-diamidino-2-phenylindole) to confirm the expression level of r-H2AX under a fluorescence microscope.

[5] = system: LoVo human colon cancer cell line; test: Western blot of r-H2AX and cleaved caspase 3 with overexpressed mutant p53 or normal LIG4
Excerpt: In order to analyze the degree of DNA damage and the degree of apoptosis of Compound B, which is a novel PARP/Tankyrase simultaneous inhibitor, according to the expression of a mutant type p53 and a normal type LIG4 when the p53 genotype is a normal type and an LIG4 genotype is a mutant type, the present inventors cultured and treated the LoVo human colon cancer cell line in which the p53 genotype is a normal type and an LIG4 genotype is a mutant type under the same condition as in Example 17.

[6] = LoVo overexpressing LIG4 normal type gene vs control group (empty)
[7] = LoVo overexpressing p53 mutant type gene vs control group (empty)

Row | Structure (SMILES) | degree of apoptosis (trypan blue cell count) [1] | expression amount of truncated caspase 3 (western blot) [2] | expression of r-H2AX (western blot) [2] | IC50 ([3]; SW480, p53 Mutant type cell line) | IC50 ([3]; SW480, MTS, 72 hours) | DNA damage: expression level of r-H2AX (immunocytochemistry) [4] | expression amount of cleaved caspase 3 (western blot) [5, 6] | expression of r-H2AX (western blot) [5, 6] | expression amount of cleaved caspase 3 (western blot) [5, 7] | expression of r-H2AX (western blot) [5, 7]
1 | CCOc1cc(CN(C)C)cc2[nH]c(=O)c3c(c12)NCCC3 [Compound A, 8-[(dimethylamino)methyl]-10-ethoxy-1,2,3,4-tetrahydrobenzo[h][1,6]naphthyridin-5(6H)-one] | apoptosis was increased | also increased | also increased | > 100 µM | > 100 µM | higher expression of r-H2AX than the group treated with olaparib | – | – | – | –
2 | N#Cc1ccc(N2CCN(Cc3ccc4c5c(c(=O)[nH]c4c3)CCCN5)CC2)nc1 [Compound B, 6-{4-[(5-oxo-1,2,3,4,5,6-hexahydrobenzo[h][1,6]naphthyridin-8-yl)methyl]piperazin-1-yl}nicotinonitrile] | – | – | – | – | – | – | reduced | reduced | reduced | reduced
